Data taken from PubChem BioAssay AID1033 (Sanford-Burnham Center for Chemical Genomics, 2008).
Activity calls are given as the source filed them. No rule for the calls is given here.

These compounds were tested against Chaperone protein DnaK (Escherichia coli (strain K12)) (UniProt P0A6Y8) (assay: binders of DnaK substrate-binding domain, biophysical, NMR, chaperone (AID 1033)). Conditions: Purified DnaK SBD, NMR ligand binding.
Sequence of Chaperone protein DnaK (Escherichia coli (strain K12)) (P0A6Y8 whole entry, looked up, the tested form may be a part): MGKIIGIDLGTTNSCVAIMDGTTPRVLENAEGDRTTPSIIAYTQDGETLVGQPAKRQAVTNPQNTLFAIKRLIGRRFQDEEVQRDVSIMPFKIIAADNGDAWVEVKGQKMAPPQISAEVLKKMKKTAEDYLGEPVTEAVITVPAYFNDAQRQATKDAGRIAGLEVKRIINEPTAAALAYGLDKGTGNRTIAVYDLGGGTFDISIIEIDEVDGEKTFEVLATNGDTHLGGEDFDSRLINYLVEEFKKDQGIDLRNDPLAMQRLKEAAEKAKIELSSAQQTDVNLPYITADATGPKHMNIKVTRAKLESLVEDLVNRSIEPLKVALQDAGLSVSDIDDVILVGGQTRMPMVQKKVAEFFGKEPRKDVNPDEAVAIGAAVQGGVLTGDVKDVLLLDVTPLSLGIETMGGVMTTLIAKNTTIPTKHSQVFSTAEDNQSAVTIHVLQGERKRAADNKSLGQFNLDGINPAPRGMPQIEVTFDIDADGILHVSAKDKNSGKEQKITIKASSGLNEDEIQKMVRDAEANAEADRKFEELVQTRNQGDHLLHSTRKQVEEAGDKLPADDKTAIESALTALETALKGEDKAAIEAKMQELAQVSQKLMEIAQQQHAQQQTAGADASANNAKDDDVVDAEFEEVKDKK
With `CC(=O)O[C@H]1CCC2(C)C3=C(CCC2C1(C)C)[C@]1(C)CCC(C(C)CCC=C(C)C)[C@@]1(C)CC3` (some centres undefined) the Kd was > 4 mM (inactive).
For `COc1ccccc1C(=O)NC1CCN(C)CC1`, the Kd was > 4 mM (inactive).
With `N#Cc1cnn(Cc2ccc(Cl)cc2)c1N` the Kd was > 4 mM (inactive).
With `CC(C)(O)[C@@H]1Cc2cc3ccc(=O)oc3cc2O1` the Kd was > 4 mM (inactive).
For `Cn1nnc2cc(C(=O)O)ccc21`, the Kd was > 4 mM (inactive).
`NCc1oc(-c2ccccc2)cc1C(=O)O` was tested, and the Kd was > 4 mM (inactive).
For `Cc1ccnc(NS(=O)(=O)c2ccccc2)n1`, the Kd was > 4 mM (inactive).
In the case of `NCc1cccc2c1OCCO2`, the Kd is reported as > 4 mM (inactive).
With `CN1CCN(CC(=O)NC2CCCCC2)CC1` the Kd was > 4 mM (inactive).
In the case of `Nc1nc(-c2ccc(O)cc2)cs1`, the Kd is reported as > 4 mM (inactive).
In the case of `Cc1nc2ccc(NC(=O)N3CCSCC3)cc2s1`, the Kd is reported as > 4 mM (inactive).
With `CC1(C)CC23C(=O)CCC(O)C2(C)CCC13` (centres undefined) the Kd was > 4 mM (inactive).
`Cn1c(=O)c2c(ncn2CCN)n(C)c1=O` was tested, and the Kd was > 4 mM (inactive).
With `Cc1c(CO)cnn1-c1ccccc1` the Kd was > 4 mM (inactive).
`O=C(O)CN1C(=O)c2ccc(C(=O)O)cc2C1=O` was tested, and the Kd was > 4 mM (inactive).
With `CCC(=O)OC1[C@@H]2CC3=C4CC(=O)O[C@@H](c5ccoc5)[C@]4(C)CCC3C(C)(C2=O)[C@@H](CC(=O)OC)C1(C)C` (some centres undefined) the Kd was > 4 mM (inactive).
With `COc1ccc(Cl)cc1-c1n[nH]c(=S)n1C` the Kd was > 4 mM (inactive).
With `COc1cccc(S(=O)(=O)Nc2cccnc2)c1` the Kd was > 4 mM (inactive).
In the case of `CCCCCC(=O)Cc1cc(O)cc(O)c1C(=O)Oc1cc(CC(=O)CCCCC)c(C(=O)O)c(OC)c1`, the Kd is reported as > 4 mM (inactive).
For `CC1(C)CC2(CCO1)NCCN1C(=O)CSC12` (centres undefined), the Kd was > 4 mM (inactive).
In the case of `Cc1ncoc1C(=O)Nc1ncc([N+](=O)[O-])s1`, the Kd is reported as > 4 mM (inactive).
With `COc1ccc(-c2coc3c(OC)c(OC)cc(OC)c3c2=O)cc1` the Kd was > 4 mM (inactive).
In the case of `CNC(=O)c1ccc([N+](=O)[O-])cc1Cl`, the Kd is reported as > 4 mM (inactive).
With `CCCc1ncc(C(O)c2cccc3ccccc23)n1C` (centres undefined) the Kd was > 4 mM (inactive).
For `Nc1ccccc1OC(F)(F)F`, the Kd was > 4 mM (inactive).
For `CC1=C2C(=CO[C@H](C)[C@H]2C)C(=O)C(C(=O)O)=C1O`, the Kd was > 4 mM (inactive).
In the case of `N=Cc1c(O)n(-c2cccc(Cl)c2)c(=O)[nH]c1=O`, the Kd is reported as > 4 mM (inactive).
With `CC(=O)O[C@H]1C[C@@H](OC(C)=O)C(C)(C)C2CC(=O)[C@]3(C)C(CC[C@@]4(C)[C@H](C(=O)O)OC(=O)C5OC543)[C@]21C` (some centres undefined) the Kd was > 4 mM (inactive).
With `Oc1cc2c(cc1O)C1c3ccc(O)c(O)c3OCC1(O)C2` (centres undefined) the Kd was > 4 mM (inactive).
In the case of `O=C(CSc1ncccn1)Nc1nccs1`, the Kd is reported as > 4 mM (inactive).
With `S=C(Nc1ccc2nccnc2c1)N1CCOCC1` the Kd was > 4 mM (inactive).
For `CC1=C(/C=C/C(C)=C/C=C/C(C)=C/CO)C(C)(C)CCC1`, the Kd was > 4 mM (inactive).
In the case of `c1coc(-c2nc(-c3ccncc3)no2)c1`, the Kd is reported as > 4 mM (inactive).
With `O=C1NCC(=O)N2CCc3ccccc3C12` (centres undefined) the Kd was > 4 mM (inactive).
`Cc1cc(-c2ccc(Cl)cc2)n2nc(N)nc2n1` was tested, and the Kd was > 4 mM (inactive).
In the case of `CC(=O)NC(=S)Nc1ccccc1C`, the Kd is reported as > 4 mM (inactive).
For `Cc1cc(C(F)(F)F)nn1CC(N)=O`, the Kd was > 4 mM (inactive).
With `CC(C)(C)c1cc(NC(=O)c2cccnc2)no1` the Kd was > 4 mM (inactive).
In the case of `O=C(c1ccc(Cl)c(F)c1F)N1CCCC1`, the Kd is reported as > 4 mM (inactive).
`NCc1cccc(-n2cccc2)c1` was tested, and the Kd was > 4 mM (inactive).
In the case of `NCc1cccc2c1OCCCO2`, the Kd is reported as > 4 mM (inactive).
With `COc1ccc(C(N)=O)cc1NC(C)=O` the Kd was > 4 mM (inactive).
With `C[C@H]1OC(O[C@H]2[C@@H](O)CC(O[C@H]3[C@@H](O)C[C@H](O[C@H]4CC[C@]5(C)C6CC[C@]7(C)[C@@H](C8=CC(=O)OC8)[C@@H](O)C[C@]7(O)[C@@H]6CC[C@@H]5C4)O[C@@H]3C)O[C@@H]2C)C[C@H](O)C1O` (some centres undefined) the Kd was > 4 mM (inactive).
`CC1=C(C(=O)Nc2ccccc2)SCCO1` was tested, and the Kd was > 4 mM (inactive).
For `CC(NC(=O)c1cccnc1)c1ccc2c(c1)OCO2` (centres undefined), the Kd was > 4 mM (inactive).
With `O=C(NC1=NCCS1)c1ccc([N+](=O)[O-])cc1Cl` the Kd was > 4 mM (inactive).
In the case of `Cc1csc(NC(=O)c2ccoc2C)n1`, the Kd is reported as > 4 mM (inactive).
For `O=C(O)C1CC(C2CCCCN2)CN2CCCCC12` (centres undefined), the Kd was > 4 mM (inactive).
For `Cc1cc(=O)c2ccccc2n1CC(N)=O`, the Kd was > 4 mM (inactive).
In the case of `O=C(O)CSCc1ccc(Cl)cc1`, the Kd is reported as > 4 mM (inactive).
In the case of `NC(=O)CSc1ccc(-c2ccco2)nn1`, the Kd is reported as > 4 mM (inactive).
`Cn1[nH]c2nc3[nH]n(C)c(=O)c3c(-c3ccccc3)c2c1=O` was tested, and the Kd was > 4 mM (inactive).
With `CC(=O)NC12CC3CC(CC(O)(C3)C1)C2` the Kd was > 4 mM (inactive).
For `O=C(O)CSc1nc2ccccc2c(=O)[nH]1`, the Kd was > 4 mM (inactive).
In the case of `COc1ccc([C@@H]2CC(=O)c3c(O)cc(O[C@@H]4O[C@H](CO[C@H]5O[C@@H](C)[C@H](O)[C@@H](O)[C@H]5O)[C@@H](O)[C@H](O)[C@H]4O)cc3O2)cc1O`, the Kd is reported as > 4 mM (inactive).
In the case of `CCOc1ccc(C(=O)c2ccc(O)c(O)c2O)cc1`, the Kd is reported as > 4 mM (inactive).
In the case of `O=C(OCc1c(Cl)cccc1Cl)c1cnccn1`, the Kd is reported as > 4 mM (inactive).
For `NCc1ccc2c(c1)OCCO2`, the Kd was > 4 mM (inactive).
In the case of `OCCCc1nc2ccc(C(F)(F)F)cc2[nH]1`, the Kd is reported as > 4 mM (inactive).
`Cc1ccc(-n2[nH]c(C)cc2=O)cc1` was tested, and the Kd was > 4 mM (inactive).
For `CC(C)(C)c1cc(N)n[nH]1`, the Kd was > 4 mM (inactive).
With `Cc1[nH]c2ccccc2c1C=Nn1cncn1` the Kd was > 4 mM (inactive).
`O=C1CS/C(=N/S(=O)(=O)c2ccccc2)N1` was tested, and the Kd was > 4 mM (inactive).
`CCOc1ccc(C)cc1S(=O)(=O)n1ccnc1` was tested, and the Kd was > 4 mM (inactive).
`CC(=O)c1cccc(NC(=O)C=C(C)C)c1` was tested, and the Kd was > 4 mM (inactive).
For `Cn1nccc1N`, the Kd was > 4 mM (inactive).
In the case of `C=C1C2CC[C@@]3(C)[C@H](c4ccoc4)OC(=O)C[C@]13O[C@H]1CC(=O)C(C)(C)C(CC(=O)OC)C21C` (some centres undefined), the Kd is reported as > 4 mM (inactive).
`CC1C[C@H]2CC(=O)[C@H]3CCCN4CCC[C@H]2[C@]34C1` (some centres undefined) was tested, and the Kd was > 4 mM (inactive).
For `Cc1cc2nc3c(=O)[nH]c(=O)nc-3n(CC(O)C(O)C(O)CO)c2cc1C` (centres undefined), the Kd was > 4 mM (inactive).
In the case of `CC1(C)C(=O)C=C[C@@]2(C)C1C[C@@H](O)[C@]1(C)C2CC[C@@]2(C)[C@H](c3ccoc3)OC(=O)[C@H]3O[C@]321` (some centres undefined), the Kd is reported as > 4 mM (inactive).
`C=CCN1CC[C@]23c4c5ccc(O)c4OC2C(=O)CC[C@@]3(O)[C@H]1C5` (some centres undefined) was tested, and the Kd was > 4 mM (inactive).
For `CC(C)/C(O)=C1/C(=O)O[C@@H](c2ccoc2)[C@]2(C)C(O)[C@@H](O)[C@@]34OC5(C)OC67CC(C)(C(O)[C@]6(O)[C@@H](O)[C@]3(O5)C12)[C@H](CC(=O)O)[C@]74C` (some centres undefined), the Kd was > 4 mM (inactive).
`O=C(CNC(=O)c1cccs1)NC1=NCCS1` was tested, and the Kd was > 4 mM (inactive).
`CC(=O)O[C@@H]1CC2C(C)(C)C(=O)[C@@H]3O[C@@H]3[C@]2(C)C2CC[C@]3(C)C(=CC(=O)O[C@H]3c3ccoc3)[C@@]21C` (some centres undefined) was tested, and the Kd was > 4 mM (inactive).
For `COC(=O)c1c(SC)nc(-c2ccccc2)[nH]c1=O`, the Kd was > 4 mM (inactive).
For `O=C1C2C3C=CC(C3)C2C(=O)N1c1nccs1` (centres undefined), the Kd was > 4 mM (inactive).
In the case of `C=CCc1ccc2c(c1)OCO2`, the Kd is reported as > 4 mM (inactive).
With `O=C1c2ccccc2C(=O)N1OCc1ccccc1` the Kd was > 4 mM (inactive).
With `O=C(O)C1CC(=O)N(CCc2ccc(Cl)cc2)C1` (centres undefined) the Kd was > 4 mM (inactive).
`Cc1cc(=O)oc2cc(O)c(O)cc12` was tested, and the Kd was > 4 mM (inactive).
In the case of `O=C(O)C1CC2CC1CCC2O` (centres undefined), the Kd is reported as > 4 mM (inactive).
With `O=C1C=CC(=O)c2c(O)cccc21` the Kd was > 4 mM (inactive).
`COc1ccc(-c2c(C)n([O-])c(C)c(C)[n+]2=O)cc1` was tested, and the Kd was > 4 mM (inactive).
With `Cc1cc(NC(=O)Cc2c(F)cccc2Cl)no1` the Kd was > 4 mM (inactive).
With `O=C(O)c1onc2ccccc12` the Kd was > 4 mM (inactive).
In the case of `Cc1ccccc1NC(=O)c1ccccc1`, the Kd is reported as “inactive”.
In the case of `c1ccc(-n2cnnc2)nc1`, the Kd is reported as > 4 mM (inactive).
With `CCOC(=O)c1ccc(F)cc1F` the Kd was > 4 mM (inactive).
`O=C(NC12CC3CC(CC(C3)C1)C2)c1cnccn1` was tested, and the Kd was > 4 mM (inactive).
For `O=c1cc(-c2ccc(O)cc2)[nH]c(=S)[nH]1`, the Kd was > 4 mM (inactive).
With `O=C(O)CSCC(=O)Nc1cccc(O)c1` the Kd was > 4 mM (inactive).
`O=C(O)c1ccc(N2CCOCC2)cc1` was tested, and the Kd was > 4 mM (inactive).
In the case of `O=C(Nc1cccnc1)c1ccc(Br)s1`, the Kd is reported as > 4 mM (inactive).
For `CSc1nc2[nH]ncc2c(=O)[nH]1`, the Kd was > 4 mM (inactive).
`O=C(CCc1ccc(O)cc1)c1c(O)cc(O)cc1O` was tested, and the Kd was > 4 mM (inactive).
For `CCOC(=O)Nc1ccc2c(C)cc(=O)oc2c1`, the Kd was > 4 mM (inactive).
With `CCOC(=O)C1CN(C)CCN1C` (centres undefined) the Kd was > 4 mM (inactive).
With `CC(=O)O[C@@H]1CC2C(C)(C)[C@@H](O)CC[C@]2(C)C2CC[C@@]3(C)[C@H](c4ccoc4)OC(=O)[C@H]4O[C@]43[C@@]21C` (some centres undefined) the Kd was > 4 mM (inactive).
`O=C1C2C3CCC(O3)C2C(=O)N1c1ccccc1` (centres undefined) was tested, and the Kd was > 4 mM (inactive).
For `Cc1nc2[nH]onc2c2nccc(=O)c12`, the Kd was > 4 mM (inactive).
In the case of `Cc1cc(C)n2nc(N)nc2n1`, the Kd is reported as > 4 mM (inactive).
In the case of `CCn1c(=O)cc(N2CCC3(CC2)OCCO3)[nH]c1=O`, the Kd is reported as > 4 mM (inactive).
`Nc1ccc(-c2csnn2)cc1` was tested, and the Kd was > 4 mM (inactive).
For `COc1ccc(-c2cc(=O)c3c(O)cc(O[C@H]4O[C@H](CO[C@@H]5O[C@@H](C)[C@H](O)[C@@H](O)[C@H]5O)[C@@H](O)[C@H](O)[C@H]4O)cc3o2)cc1`, the Kd was > 4 mM (inactive).
In the case of `O=C(Nc1c[nH]c(=O)[nH]c1=O)c1cccs1`, the Kd is reported as > 4 mM (inactive).
For `OC(CCl)c1ccc(-n2cncn2)cc1` (centres undefined), the Kd was > 4 mM (inactive).
With `CC1(C)C(=O)C=C[C@@]2(C)C1=C(O)C(=O)[C@]1(C)C2CC[C@@]2(C)[C@H](c3ccoc3)C[C@H]3O[C@]321` (some centres undefined) the Kd was > 4 mM (inactive).
With `S=c1nc2c(n[nH]1)[nH]c1ccccc12` the Kd was > 4 mM (inactive).
In the case of `Nc1ccccc1-n1cccn1`, the Kd is reported as > 4 mM (inactive).
